Publication PMC6600263, “Neuroprotective Effects of Red Ginseng Saponins in Scopolamine-Treated Rats and Activity Screening Based on Pharmacokinetics” (Molecules, 2019)
Read-outs that look alike come from different tables or passages of the source.

Test: pharmacokinetics of 16 ginsenosides in rat plasma after oral administration of RGS
Assay type: in vivo
Details: for Cmax / MRT / half-life / Tmax / C Max / T1/2 / T Max: SD, rat, po, 100 mg/kg
Experimental: The SD rats were randomly allocated into two groups, i.e., normal group and SA-treated group.
Blood samples were collected from the postocular vein at 0.083, 0.25, 0.5, 1, 2, 3, 4, 6, 8, 12 and 24 h after SA injection. Blood sample immediately was centrifuged at 18,000 rpm for 10 min. Plasma was withdrawn (0.15 mL) and diluted with 0.3 mL of acetonitrile and 20 µL of the IS (6 µg/mL). After 30 min, the mixture was clarified by centrifugation at 18,000 rpm for 10 min at 4 °C. The supernatant was dried under a stream of N2, and the residue was dissolved in 0.1 mL of methanol and stored at −20 °C for further analysis.
The UPLC-MS/MS system (Waters Xeve TQ, Waters, Cork, Ireland) with a column C18 (ACQUITY, 1.7 μm, 2.1 × 50 mm, Waters, Cork, Ireland) were adopted at 35 °C. Water (A) and acetonitrile (B) were used as mobile phases at a flow rate of 0.4 mL/min. The treatment of elution was performed according to following pattern: 10% B for 0–5.0 min; 10→15% B for 5.0–8.0 min; 15→25% B for 8.0–12.0 min; 25→40% for 12.0–20.0 min; 40→50% B for 20.0–25.0 min; 50→65% B for 25.0–30.0 min. With regard to mass detection, the negative mode of electrospray ionization source was adopted. The optimized parameters of multiple reactions monitoring (MRM) system including collision energy, Q1 Pre Bias, Q3 Pre Bias, collision energy and MRM transition of the 16 ginsenosides are shown in Table 1.
Based on a non-compartmental method, WinNonlin software (Phoenix, version 6.1) was employed to calculate the pharmacokinetic parameters. The statistical difference between groups was analyzed by One-Way ANOVA analysis using SPSS Version 17.0. (SPSS Inc., Chicago, IL, USA). The difference between groups was regarded significant when p < 0.05. We first normalized the pharmacokinetic data and then visualized them based on principal component analysis (PCA).

[1] = in vivo, model (scopolamine 1 mg/kg i.p.-treated) rats, oral RGS single dose 100 mg/kg, plasma, mean ± S.D., n = 5, read-out: C Max
[2] = in vivo, model (scopolamine 1 mg/kg i.p.-treated) rats, oral RGS single dose 100 mg/kg, plasma, mean ± S.D., n = 5, read-out: MRT
[3] = in vivo, model (scopolamine 1 mg/kg i.p.-treated) rats, oral RGS single dose 100 mg/kg, plasma, mean ± S.D., n = 5, read-out: T1/2 (converted)
[4] = in vivo, model (scopolamine 1 mg/kg i.p.-treated) rats, oral RGS single dose 100 mg/kg, plasma, mean ± S.D., n = 5, read-out: T Max
[5] = in vivo, normal rats, oral RGS single dose 100 mg/kg, plasma, mean ± S.D., n = 5, read-out: C Max
[6] = in vivo, normal rats, oral RGS single dose 100 mg/kg, plasma, mean ± S.D., n = 5, read-out: MRT
[7] = in vivo, normal rats, oral RGS single dose 100 mg/kg, plasma, mean ± S.D., n = 5, read-out: T1/2 (converted)
[8] = in vivo, normal rats, oral RGS single dose 100 mg/kg, plasma, mean ± S.D., n = 5, read-out: T Max
[9] = model (scopolamine 1 mg/kg i.p.-treated) rats, oral RGS single dose 100 mg/kg, plasma, mean ± S.D., n = 5
[10] = normal rats, oral RGS single dose 100 mg/kg, plasma, mean ± S.D., n = 5
[11] = plasma, model (scopolamine 1 mg/kg i.p.-treated) rats, oral RGS single dose 100 mg/kg, plasma, mean ± S.D., n = 5, read-out: C Max
[12] = plasma, model (scopolamine 1 mg/kg i.p.-treated) rats, oral RGS single dose 100 mg/kg, plasma, mean ± S.D., n = 5, read-out: MRT
[13] = plasma, model (scopolamine 1 mg/kg i.p.-treated) rats, oral RGS single dose 100 mg/kg, plasma, mean ± S.D., n = 5, read-out: T1/2 (converted)
[14] = plasma, model (scopolamine 1 mg/kg i.p.-treated) rats, oral RGS single dose 100 mg/kg, plasma, mean ± S.D., n = 5, read-out: T Max
[15] = plasma, normal rats, oral RGS single dose 100 mg/kg, plasma, mean ± S.D., n = 5, read-out: C Max
[16] = plasma, normal rats, oral RGS single dose 100 mg/kg, plasma, mean ± S.D., n = 5, read-out: MRT
[17] = plasma, normal rats, oral RGS single dose 100 mg/kg, plasma, mean ± S.D., n = 5, read-out: T1/2 (converted)
[18] = plasma, normal rats, oral RGS single dose 100 mg/kg, plasma, mean ± S.D., n = 5, read-out: T Max

Row | SMILES | AUC 0-t [9] | AUC 0-t [10] | Cmax [11] | MRT [12] | half-life [13] | Tmax [14] | Cmax [15] | MRT [16] | half-life [17] | Tmax [18] | C Max (in vivo) | MRT (in vivo) | T1/2 (in vivo) | Cmax (in vivo, C Max) | MRT (in vivo, MRT) | half-life (in vivo, T1/2) | Tmax (in vivo, T Max) | also measured
1 | CC(C)=CCCC(C)(O)C1CCC2(C)C1C(O)CC1C3(C)CCC(O)C(C)(C)C3C(OC3OC(CO)C(O)C(O)C3O)CC12C (stereo not shown) [Rh1] | 278.6 ± 12.8 ng·h/g | 215.5 ± 12.1 ng·h/g |  |  |  |  |  |  |  |  |  |  |  |  |  |  |  | Cmax [1]: 46.9 ± 7.8 ng/g; MRT [2]: 11.2 ± 2 h; half-life [3]: 534 ± 126 min; Tmax [4]: 1.5 ± 0.3 h; Cmax [5]: 41.2 ± 4.6 ng/g; MRT [6]: 9.6 ± 2.1 h; half-life [7]: 588 ± 150 min; Tmax [8]: 1 ± 0.5 h
2 | CC(C)=CCCC(C)(OC1OC(CO)C(O)C(O)C1O)C1CCC2(C)C1C(O)CC1C3(C)CCC(O)C(C)(C)C3C(OC3OC(CO)C(O)C(O)C3OC3OC(C)C(O)C(O)C3O)CC12C (stereo not shown) [Re] | 298.6 ± 21.2 ng·h/g | 278.3 ± 9.1 ng·h/g | 24.9 ± 6.9 ng/g | 8.6 ± 1.1 h | 678 ± 174 min | 0.5 ± 0.1 h | 25.6 ± 2.6 ng/g | 9.6 ± 1.2 h | 738 ± 156 min | 0.5 ± 0.4 h |  |  |  |  |  |  |  | 
3 | CC(C)=CCC=C(C)C1CCC2(C)C1C(O)CC1C3(C)CCC(OC4OC(CO)C(O)C(O)C4O)C(C)(C)C3CCC12C (stereo not shown) [Rh3] |  |  |  |  |  |  |  |  |  |  | 37.6 ± 4.8 ng/g | 19.8 ± 2.8 h | 13.6 ± 3.1 h | 24.3 ± 3.9 ng/g | 15.6 ± 3.5 h | 756 ± 192 min | 14.4 ± 1.2 h | T Max (in vivo): 10.2 ± 1.5 h
4 | CC(C)=CCCC(C)(O)C1CCC2(C)C1C(O)CC1C3(C)CCC(OC4OC(CO)C(O)C(O)C4OC4OC(CO)C(O)C(O)C4O)C(C)(C)C3CCC12C (stereo not shown) [Rg3] |  |  |  |  |  |  |  |  |  |  | 32.3 ± 4.6 ng/g | 22.5 ± 2.1 h | 19.8 ± 1.5 h | 29.6 ± 5.9 ng/g | 24.3 ± 1.2 h | 1280 ± 132 min |  | 
5 | C=C(CCC=C(C)C)C1CCC2(C)C1C(O)CC1C3(C)CCC(OC4OC(CO)C(O)C(O)C4OC4OC(CO)C(O)C(O)C4O)C(C)(C)C3CCC12C (stereo not shown) [Rk1] | 736.8 ± 17.7 ng·h/g | 556.8 ± 13.4 ng·h/g | 50.1 ± 3.7 ng/g | 26.8 ± 2.5 h | 1760 ± 126 min | 6 ± 0.8 h | 32.1 ± 5.9 ng/g | 21.3 ± 1.8 h | 1090 ± 588 min | 6 ± 0.9 h |  |  |  |  |  |  |  | 
6 | CC(C)=CCC=C(C)C1CCC2(C)C1C(O)CC1C3(C)CCC(O)C(C)(C)C3C(OC3OC(CO)C(O)C(O)C3O)CC12C (stereo not shown) [Rh4] |  |  |  |  |  |  |  |  |  |  | 38.7 ± 4.8 ng/g | 12.3 ± 2.0 h | 9.9 ± 2.1 h | 35.6 ± 3.6 ng/g | 11.2 ± 2.1 h | 528 ± 90 min | 4 ± 0.5 h | 
7 | C=C(CCC=C(C)C)C1CCC2(C)C1C(O)CC1C3(C)CCC(O)C(C)(C)C3C(OC3OC(CO)C(O)C(O)C3O)CC12C (stereo not shown) [Rk3] |  |  |  |  |  |  |  |  |  |  | 16.6 ± 2.8 ng/g | 8.9 ± 1.8 h | 6.9 ± 2.1 h | 14.2 ± 3.9 ng/g | 9.6 ± 1.5 h | 390 ± 54 min | 1 ± 0.2 h | T Max (in vivo): 1.5 ± 0.5 h
8 | CC(C)=CCC=C(C)C1CCC2(C)C1C(O)CC1C3(C)CCC(OC4OC(CO)C(O)C(O)C4OC4OC(CO)C(O)C(O)C4O)C(C)(C)C3CCC12C (stereo not shown) [Rg5] | 569.8 ± 10.2 ng·h/g | 415.6 ± 20.1 ng·h/g | 37.3 ± 2.8 ng/g | 25.6 ± 2.6 h | 1640 ± 216 min | 8 ± 1.6 h | 34.4 ± 2.6 ng/g | 22.2 ± 1.4 h | 1030 ± 150 min | 4 ± 1.8 h |  |  |  |  |  |  |  | 
9 | CC(C)=CCCC(C)(OC1OC(COC2OC(CO)C(O)C2O)C(O)C(O)C1O)C1CCC2(C)C1C(O)CC1C3(C)CCC(OC4OC(CO)C(O)C(O)C4OC4OC(CO)C(O)C(O)C4O)C(C)(C)C3CCC12C (stereo not shown) [Rc] | 109.8 ± 10.2 ng·h/g | 102.3 ± 20.2 ng·h/g | 21 ± 4.8 ng/g | 8.9 ± 2.2 h | 474 ± 186 min | 1.5 ± 0.5 h | 19.1 ± 2.9 ng/g | 9.6 ± 1.5 h | 534 ± 192 min | 1.5 ± 3.2 h |  |  |  |  |  |  |  | 
10 | CC(C)=CCCC(C)(O)C1CCC2(C)C1C(O)CC1C3(C)CCC(OC4OC(CO)C(O)C(O)C4O)C(C)(C)C3CCC12C (stereo not shown) [Rh2] | 369.8 ± 8.0 ng·h/g | 356.8 ± 12.8 ng·h/g |  |  |  |  |  |  |  |  |  |  |  |  |  |  |  | Cmax [1]: 30.2 ± 4.8 ng/g; MRT [2]: 11.8 ± 2 h; half-life [3]: 456 ± 126 min; Tmax [4]: 2 ± 0.3 h; Cmax [5]: 26.9 ± 2.6 ng/g; MRT [6]: 12.3 ± 2.1 h; half-life [7]: 588 ± 150 min; Tmax [8]: 2 ± 0.5 h
11 | CC(C)=CCCC(C)(O)C1CCC2(C)C1C(O)CC1C3(C)CCC(O)C(C)(C)C3C(OC3OC(CO)C(O)C(O)C3OC3OC(CO)C(O)C(O)C3O)CC12C (stereo not shown) [Rf] |  |  |  |  |  |  |  |  |  |  | 18.8 ± 2.6 ng/g | 7.4 ± 1.3 h | 7.5 ± 1.5 h | 17.6 ± 5.9 ng/g | 6.5 ± 1.2 h | 396 ± 72 min | 2 ± 0.6 h | 
12 | CC(C)=CCCC(C)(OC1OC(COC2OCC(O)C(O)C2O)C(O)C(O)C1O)C1CCC2(C)C1C(O)CC1C3(C)CCC(OC4OC(CO)C(O)C(O)C4OC4OC(CO)C(O)C(O)C4O)C(C)(C)C3CCC12C (stereo not shown) [Rb2] | 90.3 ± 8.2 ng·h/g | 89.6 ± 9.3 ng·h/g | 17.2 ± 2.1 ng/g | 7.9 ± 1.2 h | 414 ± 72 min | 1.5 ± 0.2 h | 18.5 ± 2.5 ng/g | 8.6 ± 2.1 h | 390 ± 90 min | 1.5 ± 0.2 h |  |  |  |  |  |  |  | 
